{"source": "patent EP0066456B1", "about": "“N-substituted azaheterocyclic carboxylic acids and their esters” (SMITHKLINE BECKMAN CORPORATION, priority 1981, dated 1982)", "system": "contralateral rotation in rats induced by unilateral injection of GABA into the pars reticulata of the substantia nigra", "assay": "potentiation of GABA-induced contralateral rotation in rats (unilateral GABA injection into pars reticulata of substantia nigra)", "assay_type": "in vivo", "conditions": "systemic administration, doses from 2.5 to 40.0 mg/kg, I.P.", "procedure": "Compounds active in the in vitro test described above are tested by systemic administration for their ability to penetrate the central nervous system and potentiate the rotation induced by GABA.", "data": [{"smiles": "Cl.O=C(O)C1CCCN(CCC=C(c2ccccc2)c2ccccc2)C1", "note": "(stereo not shown) [1 - (4,4 - diphenyl - 3 - butenyl) - 3 - piperidinecarboxylic acid hydrochloride]", "values": [{"measurement": "potentiation of contralateral rotation induced by GABA", "value": "significantly active"}]}]}
